In publication PMC9482650, “Quantitative fragmentomics allow affinity mapping of interactomes” (Nature Communications, 2022):
pKd: −log10 of the molar value. Like-named read-outs stand apart in the source and are kept apart here. Ends that are not written are not given here.

What was measured:
[1] = target: DLG1_1 PDZ (Homo sapiens, UniProt Q12959); assay: Holdup assay; type: binding
[2] = target: T1, TX1BP3 PDZ (Homo sapiens, UniProt O14907); assay: Holdup assay; type: binding
T1 sequence (O14907 15-112 limits assumed): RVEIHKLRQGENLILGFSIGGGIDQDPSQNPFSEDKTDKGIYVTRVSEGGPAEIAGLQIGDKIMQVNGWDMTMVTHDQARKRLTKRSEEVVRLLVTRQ

[3] = target: SCRIB_1 PDZ (Homo sapiens, UniProt Q14160); assay: Holdup assay; type: binding
Sequence of SCRIB_1 PDZ (Q14160 728-815 limits assumed): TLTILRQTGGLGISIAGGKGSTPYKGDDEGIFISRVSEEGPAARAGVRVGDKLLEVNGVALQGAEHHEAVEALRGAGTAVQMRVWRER

[4] = target: SNX27 PDZ (Homo sapiens, UniProt Q96L92); assay: Holdup assay; type: binding
[5] = target: DLG1_2 PDZ (Homo sapiens, UniProt Q12959); assay: Holdup assay; type: binding
[6] = target: T2, SCRIB2 PDZ (Homo sapiens, UniProt Q14160); assay: Holdup assay; type: binding
T2 sequence (Q14160 862-950 limits assumed): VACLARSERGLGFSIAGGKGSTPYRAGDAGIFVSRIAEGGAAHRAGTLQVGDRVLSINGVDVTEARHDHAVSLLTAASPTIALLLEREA

[7] = tested on: HaCat cell extract preys; assay: PDZ-AP-MS, biotinylated MBP-PDZ baits; type: binding, human; settings: for Difference log2: enrichment of prey
Procedure: (§1) For PDZ-AP-MS experiments, PDZ domains were cloned as His6-AviTag-MBP-PDZ constructs. For co-expression with BirA, E. coli BL21(DE3) cells were co-transformed with His6-AviTag-MBP, or His6-AviTag-MBP-PDZ-coding and PET21a-BirA (Addgene #20857) plasmids. Simultaneously to IPTG induction, 50 µM biotin was added to the media. After cell harvesting, the lysis buffer was also supplemented with 50 µM biotin. Otherwise, expression and double affinity purification was identical as previously described in details.
(§2) For PBM-AP-MS experiments, 30 μl streptavidin resin was mixed with biotin or peptide at 50–60 μM concentration in 6–6.5 resin volume for 60 min to achieve resin saturation. For PDZ-AP-MS experiments, 30 μl streptavidin resin was mixed with biotinylated MBP or MBP-PDZ at 40-50 μM concentration in >1000× resin volume for 60 min to achieve resin saturation. After saturation, resins were washed a single time (ten resin volume, holdup buffer), and were depleted with biotin (1 mM biotin, 5–10 resin volume, 10 min). Finally, resins were washed two times. 0.5 ml 2 mg/ml cell lysate was added to the dry resin (1 mg total input) and were incubated at 4 °C for 2 h. Then, the beads were washed three times with 10 resin volume buffer containing: 50 mM TRIS pH 8.5, 150 mM NaCl, 1% TritonX-100, 10× complete EDTA-free protease inhibitor cocktail, 2 mM EDTA, 1 mM TCEP. Then, the beads were washed two times with ten resin volume buffer containing: 50 mM TRIS pH 8.5, 150 mM NaCl, 1 mM TCEP. Finally, captured protein was eluted from the resin in two steps and the eluted fractions were pooled. For each elution the beads were incubated for 30 min with three resin volume buffer containing: 20 mM TRIS pH8.5, 100 mM NaCl, 500 μM TCEP, 8 M Urea. Between each step, the beads were separated by mild centrifugation and the supernatant was removed by gentle pipetting.
(§3) The samples were precipitated with TCA 20% overnight at 4 °C and centrifuged at 14,000 rpm for 10 min at 4 °C. The protein pellets were washed twice with 1 mL cold acetone and air dried. The protein extracts were solubilized in urea 8 M, reduced with 5 mM TCEP for 30 min, and alkylated with 10 mM iodoacetamide for 30 min in the dark. Double digestion was performed at 37 °C with 500 ng endoproteinase Lys-C for 4 h, followed by fourfold dilution and an overnight digestion with 500 ng trypsin. Peptide mixtures were then desalted on C18 spin-column and dried on Speed-Vacuum.
(§4) Samples were analyzed using an Ultimate 3000 nano-RSLC (Thermo Scientific, San Jose California) coupled in line with a LTQ-Orbitrap ELITE mass spectrometer via a nano-electrospray ionization source (Thermo Scientific, San Jose California). Peptide mixtures were injected in 0.1% TFA on a C18 Acclaim PepMap100 trap-column (75 µm ID × 2 cm, 3 µm, 100 Å, Thermo Fisher Scientific) for 3 min at 5 µL/min with 2% ACN, 0.1% FA in H2O and then separated on a C18 Accucore nano-column (75 µm ID × 50 cm, 2.6 µm, 150 Å, Thermo Fisher Scientific) at 220 nl/min and 38 °C with a 90 min linear gradient from 5% to 30% buffer B (A: 0.1% FA in H2O/B: 99% ACN, 0.1% FA in H2O), regeneration at 5% B. The mass spectrometer was operated in positive ionization mode, in data-dependent mode with survey scans from m/z 350–1500 acquired in the Orbitrap at a resolution of 120,000 at m/z 400. The 20 most intense peaks from survey scans were selected for further fragmentation in the Linear Ion Trap with an isolation window of 2.0 Da and were fragmented by CID with normalized collision energy of 35%. (TOP20CID method) Unassigned and single charged states were excluded from fragmentation. The Ion Target Value for the survey scans (in the Orbitrap) and the MS2 mode (in the Linear Ion Trap) were set to 1E6 and 5E3 respectively and the maximum injection time was set to 100 ms for both scan modes. Dynamic exclusion was set to 20 s after one repeat count with mass width at ±10 ppm. […]

[8] = tested on: HEK293T cells; assay: Label-free MS proteome of stable cell lines expressing HPV16 E6 or E6ΔPBM; type: cell-based, human; settings: protein level
Procedure: HEK293T and HeLa cells were authenticated and found 100% identity to ATCC cat. CRL-3216 and ATCC cat. CCL-2, respectively. Jurkat and HaCat cell lines were not authenticated (original source: ECACC and Deutsches Krebsforschungszentrum DKFZ, respectively). HeLa cells were grown in DMEM (1 g/L glucose, Gibco) medium completed with 5% FCS and 40 μg/mL gentamicin, diluted every 3rd/4th day 1/10. HaCat cells were grown in DMEM (1 g/L glucose, Gibco) medium completed with 10% FCS and 40 μg/mL gentamicin, diluted every 3rd/4th day 1/4. Jurkat cells were grown in RPMI (Gibco) medium completed with 10% FCS and 40 μg/mL gentamicin, diluted every 3rd/4th day 1/12. All cells were kept at 37 °C and 5% CO2. For proteomics analyses cells were seeded on T-175 flasks. After they reached confluency, adherent cells were washed with PBS once and collected by scraping with ice-cold lysis buffer (Hepes-KOH pH 7.5 50 mM, NaCl 150 mM, Triton X-100 1%, complete EDTA-free protease inhibitor cocktail 1×, EDTA 2 mM, TCEP 5 mM, glycerol 10%). Jurkat cells were collected by 1000 g × centrifugation, washed once with PBS, then collected by 1000 g × 5 min centrifugation again and lysed in ice-cold lysis buffer. Lysates were sonicated 4 × 20 s with 1 s long pulses on ice, then incubated rotating at 4 °C for 30 min. Lysates were centrifuged at 12,000 rpm 4 °C for 20 min and supernatant was kept for further analysis. Concentration determination was carried out by standard Bradford method (Bio-Rad Protein Assay Dye Reagent #5000006) using BSA (MP BIomedicals #160069) as control on a Bio-Rad SmartSpec 3000 spectrophotometer instrument.
as §3
Samples were analyzed using an Ultimate 3000 nano-RSLC (Thermo Scientific, San Jose California) coupled in line with a LTQ-Orbitrap ELITE mass spectrometer via a nano-electrospray ionization source (Thermo Scientific, San Jose California). Peptide mixtures were injected in 0.1% TFA on a C18 Acclaim PepMap100 trap-column (75 µm ID × 2 cm, 3 µm, 100 Å, Thermo Fisher Scientific) for 3 min at 5 µL/min with 2% ACN, 0.1% FA in H2O and then separated on a C18 Accucore nano-column (75 µm ID × 50 cm, 2.6 µm, 150 Å, Thermo Fisher Scientific) at 220 nl/min and 38 °C with a 90 min linear gradient from 5% to 30% buffer B (A: 0.1% FA in H2O/B: 99% ACN, 0.1% FA in H2O), regeneration at 5% B. The mass spectrometer was operated in positive ionization mode, in data-dependent mode with survey scans from m/z 350–1500 acquired in the Orbitrap at a resolution of 120,000 at m/z 400. The 20 most intense peaks from survey scans were selected for further fragmentation in the Linear Ion Trap with an isolation window of 2.0 Da and were fragmented by CID with normalized collision energy of 35%. (TOP20CID method) Unassigned and single charged states were excluded from fragmentation. The Ion Target Value for the survey scans (in the Orbitrap) and the MS2 mode (in the Linear Ion Trap) were set to 1E6 and 5E3 respectively and the maximum injection time was set to 100 ms for both scan modes. Dynamic exclusion was set to 20 s after one repeat count with mass width at ±10 ppm.
Proteins were identified by database searching using SequestHT (Thermo Fisher Scientific) with Proteome Discoverer 2.4 software (PD2.4, Thermo Fisher Scientific) on human FASTA database downloaded from SwissProt (reviewed, release 2020_11_27, 20304 entries, https://www.uniprot.org/). […]

[9] = tested on: Jurkat cell extract preys; assay: PDZ-AP-MS, biotinylated MBP-PDZ baits; type: binding, human; settings: for Difference log2: enrichment of prey
Procedure: as §1, §2, §3, §4

[10] = PBM motif of the named protein vs DLG1_1 PDZ, read-out: pKd values – domain-motif, DLG1_1 (converted)
[11] = PBM motif of the named protein vs TX1BP3 PDZ, read-out: pKd values – domain-motif, TX1BP3 (converted)
[12] = PBM motif of the named protein vs SCRIB_1 PDZ, read-out: pKd values – domain-motif, SCRIB_1 (converted)
[13] = PBM motif of the named protein vs DLG1_2 PDZ, read-out: pKd values – domain-motif, DLG1_2 (converted)
[14] = holdup affinity of the PBM peptide of the named protein, sheet PBMcomplexome, lower sub-table, 3.5 appears to be the floor for no detectable binding, read-out: affinity of PBM to SCRIB_2 (pKd) (converted)
[15] = holdup affinity of the PBM peptide of the named protein, sheet PBMcomplexome, lower sub-table, 3.5 appears to be the floor for no detectable binding, read-out: affinity of PBM to TX1BP3 (pKd) (converted)
[16] = holdup affinity of the PBM peptide of the named protein, sheet PBMcomplexome, lower sub-table, 3.5 appears to be the floor for no detectable binding, read-out: affinity of PBM to SCRIB_1 (pKd) (converted)
[17] = holdup affinity of the PBM peptide of the named protein, sheet PBMcomplexome, lower sub-table
[18] = bait SCRIB_1 PDZ, fold change of prey
[19] = bait SNX27 PDZ, fold change of prey
[20] = holdup affinity of the PBM peptide of the named protein, sheet PBMcomplexome, lower sub-table, 3.5 appears to be the floor for no detectable binding, read-out: affinity of PBM to DLG1_1 (pKd) (converted)
[21] = holdup affinity of the PBM peptide of the named protein, sheet PBMcomplexome, lower sub-table, 3.5 appears to be the floor for no detectable binding, read-out: affinity of PBM to DLG1_2 (pKd) (converted)

DPRNTQTSQI [ABRAXAS2]
Kd [1, 10]: 324 µM
Kd [2, 11]: 195 µM
Kd [3, 12]: 95.5 µM
pKd [4]: 4.04
Kd [5, 13]: 145 µM

YLEPVLSSEL [ATP2A2]
Kd [6, 14]: 275 µM
Kd [2, 15]: 115 µM
Kd [3, 16]: 41.7 µM
pKd [4, 17]: 4.12

SPLHSLETSL [ATP2B1]
Kd ([6]; PBM motif of the named protein vs SCRIB_2 PDZ, read-out: pKd values – domain-motif, SCRIB_2 (converted)): 53.7 µM
Kd [1, 10]: 75.9 µM
Kd [2, 11]: 35.5 µM
Kd [3, 12]: 4.37 µM
pKd [4]: 5.48
Kd [5, 13]: 21.4 µM

TJP1
Difference log2 ([7]; bait DLG1_1 PDZ vs MBP): 11.6713
Ratio DLG1_1/MBP ([7]; bait DLG1_1 PDZ, fold change of prey): 3261.52
Difference log2 ([7]; bait SCRIB_1 PDZ vs MBP): 5.351
Ratio SCRIB_1/MBP [7, 18]: 40.8237
Difference log2 ([7]; bait SNX27 PDZ vs MBP): 10.4278
Ratio SNX27/MBP [7, 19]: 1377.49

GGPKEEESPV [SLC16A1]
Kd [3, 12]: 6.61 µM
pKd [4]: 5.27
Kd [5, 13]: 275 µM

DRIQSCLSDA [SBF1]
Kd [2, 15]: 91.2 µM

ELSATVTTDC [TRIP6]
Kd [2, 11]: 331 µM
Kd [3, 12]: 33.1 µM
pKd [4]: 4.57
Kd [5, 13]: 214 µM

CC(C)C[C@H](NC(=O)[C@@H]1CCCN1C(=O)[C@@H]1CCCN1C(=O)[C@H](CCCCN)NC(=O)[C@H](CO)NC(=O)[C@H](CC(=O)O)NC(=O)CCCCCNC(=O)CCCC[C@@H]1SC[C@@H]2NC(=O)N[C@@H]21)C(=O)N1CCC[C@H]1C(=O)N1CCC[C@H]1C(=O)N[C@@H](CC(=O)O)C(=O)N[C@@H](CCC(=O)O)C(=O)N[C@@H](Cc1c[nH]c2ccccc12)C(=O)N[C@H](C(=O)O)C(C)C [MERS E]
pKd [4]: 4.56

HSATSVHTSV [MTMR1]
Kd [6, 14]: 112 µM
Kd [1, 20]: 55 µM
Kd [2, 15]: 158 µM
Kd [3, 16]: 162 µM
pKd [4, 17]: 3.96
Kd [5, 21]: 12.6 µM

ESYT2
Difference log2 E6/Ctrl ([8]; E6 cell line vs control): -0.8847
Ratio E6/Ctrl ([8]; E6 cell line vs control): 0.5416
Difference log2 dPBM/E6 ([8]; dPBM cell line vs E6 cell line): -0.2136
Ratio dPBM/E6 ([8]; dPBM cell line vs E6 cell line): 0.8624
Difference log2 dPBM/Ctrl ([8]; dPBM cell line vs control): -1.098
Ratio dPBM/Ctrl ([8]; dPBM cell line vs control): 0.4671

EALLQMESVA [CAVIN3]
Kd [3, 16]: 275 µM
pKd [4, 17]: 4.13

NLQEHSTTSV [RSBN1]
Kd [1, 20]: 316 µM
Kd [2, 15]: 107 µM
Kd [3, 16]: 263 µM
pKd [4, 17]: 5.48
Kd [5, 21]: 102 µM

VIM
Difference log2 ([9]; bait SCRIB_1 PDZ vs MBP): 7.128
Ratio SCRIB_1/MBP [9, 18]: 139.918
Difference log2 ([9]; bait SNX27 PDZ vs MBP): 6.235
Ratio SNX27/MBP [9, 19]: 75.3373
Difference log2 ([9]; bait TX1BP3 PDZ vs MBP): 7.255
Ratio TX1BP3/MBP ([9]; bait TX1BP3 PDZ, fold change of prey): 152.718

PKMKLNETSF [SHKBP1]
Kd [3, 12]: 49 µM
pKd [4]: 5.54

DLDEEEDTHL [PODXL]
Kd [1, 10]: 234 µM
Kd [3, 12]: 8.32 µM
pKd [4]: 5.15
